Source: paper PMC12140364, “Meisoindigo Acts as a Molecular Glue to Target PKMYT1 for Degradation in Chronic Myeloid Leukemia Therapy” (Advanced Science, 2025)
One block for each molecule: values may come before it.

How the values were obtained:
TRIM25 = molecular target: T1, TRIM25 (Homo sapiens, UniProt Q14258); assay: MST; format: binding
T1 construct: recombinant TRIM25 (Origene, TP303757)

[1] = molecular target: T2, PKMYT1 (protein kinase, membrane-associated tyrosine/threonine 1) (Homo sapiens, UniProt Q99640); assay: MST; LC-MS/MS adduct mapping; CETSA; C301A mutant abolishes binding
T2 construct: residues 75-362, N-terminal 6xHis, E. coli
T2 sequence (Q99640 75-362): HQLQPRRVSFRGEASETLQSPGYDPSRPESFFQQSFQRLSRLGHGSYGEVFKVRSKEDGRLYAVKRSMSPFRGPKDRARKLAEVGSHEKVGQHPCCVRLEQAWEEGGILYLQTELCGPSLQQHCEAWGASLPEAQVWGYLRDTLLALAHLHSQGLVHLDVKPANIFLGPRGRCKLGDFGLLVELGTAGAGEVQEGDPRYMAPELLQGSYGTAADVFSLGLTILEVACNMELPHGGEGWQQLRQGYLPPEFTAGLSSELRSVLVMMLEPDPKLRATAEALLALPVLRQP

PKMYT1 = molecular target: T3, PKMYT1 (Homo sapiens, UniProt Q99640); assay: enzyme activity assay; format: biochemical
T3 sequence (Q99640 1-499): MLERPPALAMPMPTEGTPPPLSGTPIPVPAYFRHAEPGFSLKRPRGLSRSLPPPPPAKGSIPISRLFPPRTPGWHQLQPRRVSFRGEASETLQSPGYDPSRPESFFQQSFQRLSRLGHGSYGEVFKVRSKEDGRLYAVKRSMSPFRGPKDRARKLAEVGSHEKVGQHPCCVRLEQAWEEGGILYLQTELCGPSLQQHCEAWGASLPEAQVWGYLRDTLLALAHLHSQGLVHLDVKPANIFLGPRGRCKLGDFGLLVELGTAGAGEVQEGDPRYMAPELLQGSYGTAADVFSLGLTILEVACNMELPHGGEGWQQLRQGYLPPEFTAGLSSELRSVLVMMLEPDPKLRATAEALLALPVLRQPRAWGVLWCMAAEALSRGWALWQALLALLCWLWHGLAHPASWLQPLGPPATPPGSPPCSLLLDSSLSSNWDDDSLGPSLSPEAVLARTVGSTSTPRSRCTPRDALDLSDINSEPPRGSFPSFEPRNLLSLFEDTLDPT

[2] = molecular target: T4, TRIM25 protein (Origene, TP303757) (UniProt Q14258 1-630); assay: MST; PKMYT1 (75-362) protein labelled with RED-NHS 2nd Generation, 40 nM, assay buffer with 0.05% Tween-20; TRIM25 in 2-fold dilution series; Monolith NT.115; without Mei; n = 3; details: both partners purified
T4 construct: TRIM25, E3 ubiquitin ligase; also called recombinant TRIM25; E3 ligase TRIM25; source: bought: Origene (TP303757)
T4 sequence (Q14258 whole entry): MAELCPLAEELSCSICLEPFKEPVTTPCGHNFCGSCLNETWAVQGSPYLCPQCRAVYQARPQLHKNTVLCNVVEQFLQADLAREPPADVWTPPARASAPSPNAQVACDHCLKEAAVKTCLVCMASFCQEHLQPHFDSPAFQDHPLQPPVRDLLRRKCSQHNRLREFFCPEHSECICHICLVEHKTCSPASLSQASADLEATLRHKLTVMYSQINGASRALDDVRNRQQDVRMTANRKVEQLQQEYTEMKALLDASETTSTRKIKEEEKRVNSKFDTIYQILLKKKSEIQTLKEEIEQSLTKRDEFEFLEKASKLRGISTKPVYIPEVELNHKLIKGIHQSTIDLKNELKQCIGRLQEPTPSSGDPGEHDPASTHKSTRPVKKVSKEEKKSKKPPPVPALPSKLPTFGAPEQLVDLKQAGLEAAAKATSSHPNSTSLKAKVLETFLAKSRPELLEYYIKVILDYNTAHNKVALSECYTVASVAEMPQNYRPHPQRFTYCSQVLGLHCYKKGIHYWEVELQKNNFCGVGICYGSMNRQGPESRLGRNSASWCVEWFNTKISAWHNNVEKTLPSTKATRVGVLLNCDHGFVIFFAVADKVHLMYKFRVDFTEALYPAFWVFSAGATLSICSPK

T1 sequence (Q14258 whole entry): as above

Kd (TRIM25): 220 ± 100 nM
Kd [1]: 2180 ± 960 nM
Molecule: CN1C(=O)/C(=C2/C(=O)Nc3ccccc32)c2ccccc21 [Mei, Meisoindigo]

IC50 (PKMYT1): 16.4 nM
Molecule: CCN(CC)CCOc1ccc(Nc2ncc3cc(-c4c(Cl)cccc4Cl)c(=O)n(C)c3n2)cc1 [PD0166285]

Kd [2]: 2940 nM
B1: recombinant PKMYT1 (75-362) (domain or fragment, human, UniProt Q99640 75-362, looked up)
chain: HQLQPRRVSFRGEASETLQSPGYDPSRPESFFQQSFQRLSRLGHGSYGEVFKVRSKEDGRLYAVKRSMSPFRGPKDRARKLAEVGSHEKVGQHPCCVRLEQAWEEGGILYLQTELCGPSLQQHCEAWGASLPEAQVWGYLRDTLLALAHLHSQGLVHLDVKPANIFLGPRGRCKLGDFGLLVELGTAGAGEVQEGDPRYMAPELLQGSYGTAADVFSLGLTILEVACNMELPHGGEGWQQLRQGYLPPEFTAGLSSELRSVLVMMLEPDPKLRATAEALLALPVLRQP
modifications: labelled with RED-NHS 2nd Generation dye for MST
notes: No cleavage of the His tag is described; also called protein kinase, membrane-associated tyrosine/threonine 1; source: E. coli BL21(DE3), purified (Ni-resin)
